Here are results for twelve compounds from ChEMBL document CHEMBL4673345 (J Med Chem, 2020).

Data set [1] in a line: Inhibition of ABCB1 in multidrug-resistant human SW620/Ad300 cells assessed as increase in reversal of resistance to paclitaxel-induced cytotoxicity by measuring paclitaxel IC50 pre-incubated for 4 hrs followed by paclitaxel addition and measured after 72 hrs by MTT assay (reference value: 4.23 +/- 0.6 uM).
Data set [2] can be described thus: Toxicity in human SW-620/Ad300 cells assessed as cell viability at 20 uM incubated for 72 hrs by MTT assay. The data set is classed as cell-based. The settings on record: read-out: Activity. On the technique in general: Formazan colour is commonly taken as a measure of viable cells.
The next data set has as its target Cytochrome P450 3A4 (Homo sapiens, UniProt P08684). The data set is described as follows: Activation of CYP3A4 in human liver microsomes at 30 uM incubated for 10 mins in presence of CYP3A4 substrate/NADP+ by fluorescence based assay. The data set is classed as ADME. (In general: Microsomes from liver hold many membrane-bound enzymes, among them those of drug oxidation.)

For data set [3], the target named is Multidrug resistance-associated protein 1 (Homo sapiens, UniProt P33527). As to the kind of experiment: Stabilization of ABCC1 in human SW620/Ad300 cells assessed as inhibition of high temperature-induced ABCB1 protein degradation at 200 uM incubated for 30 mins by cellular thermal shift assay. Type of data set: cell-based. The settings on record: sw-620, 0.5 h.
Chain of Multidrug resistance-associated protein 1 (P33527 whole entry): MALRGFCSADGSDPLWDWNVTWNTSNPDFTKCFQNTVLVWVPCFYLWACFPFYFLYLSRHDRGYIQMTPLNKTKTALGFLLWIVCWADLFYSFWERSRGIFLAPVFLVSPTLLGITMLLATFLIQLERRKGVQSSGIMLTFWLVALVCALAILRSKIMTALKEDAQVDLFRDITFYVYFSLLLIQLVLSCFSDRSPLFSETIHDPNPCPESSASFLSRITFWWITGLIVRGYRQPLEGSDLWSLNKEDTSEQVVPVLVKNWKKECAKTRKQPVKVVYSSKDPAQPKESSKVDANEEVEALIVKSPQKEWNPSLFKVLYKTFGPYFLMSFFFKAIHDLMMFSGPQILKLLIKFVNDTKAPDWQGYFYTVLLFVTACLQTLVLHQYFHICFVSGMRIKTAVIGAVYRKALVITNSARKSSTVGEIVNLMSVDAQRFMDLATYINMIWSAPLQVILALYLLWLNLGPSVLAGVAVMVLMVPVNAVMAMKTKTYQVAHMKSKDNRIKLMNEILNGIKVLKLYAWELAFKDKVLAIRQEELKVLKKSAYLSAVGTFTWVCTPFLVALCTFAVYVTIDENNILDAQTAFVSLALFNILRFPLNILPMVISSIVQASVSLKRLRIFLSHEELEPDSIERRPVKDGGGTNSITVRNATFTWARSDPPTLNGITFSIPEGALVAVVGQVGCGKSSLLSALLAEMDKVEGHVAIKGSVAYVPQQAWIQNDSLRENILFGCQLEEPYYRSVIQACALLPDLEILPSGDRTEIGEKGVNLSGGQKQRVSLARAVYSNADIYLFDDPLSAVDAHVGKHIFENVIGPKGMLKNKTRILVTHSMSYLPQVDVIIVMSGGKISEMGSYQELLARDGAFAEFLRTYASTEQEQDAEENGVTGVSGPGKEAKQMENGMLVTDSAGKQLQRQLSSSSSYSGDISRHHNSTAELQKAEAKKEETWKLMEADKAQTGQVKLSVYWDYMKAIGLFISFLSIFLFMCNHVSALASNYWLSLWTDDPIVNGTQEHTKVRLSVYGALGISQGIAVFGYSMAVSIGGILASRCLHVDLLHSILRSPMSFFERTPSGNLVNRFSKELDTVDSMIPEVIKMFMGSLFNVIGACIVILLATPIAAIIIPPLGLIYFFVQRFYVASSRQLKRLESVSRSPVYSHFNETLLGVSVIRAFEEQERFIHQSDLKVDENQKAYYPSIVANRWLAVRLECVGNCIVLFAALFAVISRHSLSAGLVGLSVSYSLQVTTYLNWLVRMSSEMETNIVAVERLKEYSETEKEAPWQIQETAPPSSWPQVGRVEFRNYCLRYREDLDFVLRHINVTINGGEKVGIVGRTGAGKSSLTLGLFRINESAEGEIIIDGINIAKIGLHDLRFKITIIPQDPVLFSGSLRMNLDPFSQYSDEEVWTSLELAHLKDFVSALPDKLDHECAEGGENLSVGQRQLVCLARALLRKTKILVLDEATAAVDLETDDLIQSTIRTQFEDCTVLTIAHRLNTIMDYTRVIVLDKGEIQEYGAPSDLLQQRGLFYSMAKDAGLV

The next data set concerns the target CYP3A4 (Homo sapiens, UniProt P08684). As to the kind of experiment: Activation of CYP3A4 in human liver microsomes at 20 uM after 30 mins in presence of CYP3A4 substrate/NADP+ by fluorescence based assay. The data set is classed as ADME. The settings on record: read-out: FC.
Data set [4] is described as follows: Reversal of resistance to paclitaxel-induced cytotoxicity in HEK293 cells assessed as reduction in paclitaxel IC50 at 20 uM pre-incubated for 4 hrs followed by paclitaxel addition and measured after 72 hrs by MTT assay. Type of data set: functional, Homo sapiens. The settings on record: time 76 hrs.
The test system of data set [5] is SW-620. The data set is described as follows: Effect on ABCB1 subcellular localization in human SW620/Ad300 cells at 20 uM incubated for 72 hrs by Western blotting analysis. Type of data set: functional, cell-based.
Data set [6] can be described thus: Toxicity in BALB/c mouse xenografted with human SW620/Ad300 cells assessed as induction of mortality at 20 mg/kg/day, ig. The data set is classed as organism-based. The settings on record: in vivo, po. For orientation: In xenograft studies the graft and the host belong to different species.
For data set [7], the system named is SW-620. The data set is described as follows: Antitumor activity against human SW620/Ad300 cells xenografted in BALB/c mouse assessed as induction of tumor death by measuring nuclear pyknosis at 20 mg/kg/day, ig for 21 days by H and E staining based assay. The data set is classed as functional, organism-based. The note with it: time 21.0 day.
Data set [8] has as its system SW-620. The data set is described as follows: Effect on intracellular PTX concentration in human SW620 cells at 20 uM pre-incubated for 4 hrs followed by PTX addition and measured after 2 hrs by liquid scintillation counting analysis. The data set is classed as functional, cell-based. The note with it: time 6.0 hrs.
The test system of data set [9] is SW-620. The data set is described as follows: Effect on ABCB1 protein expression in human SW620/Ad300 cells at 20 uM incubated for 72 hrs by Western blotting analysis. The data set is classed as functional, cell-based.
The subject of data set [10] is SW-620. The data set is described as follows: Antitumor activity against human SW620/Ad300 cells xenografted in BALB/c mouse assessed as reduction in tumor volume at 20 mg/kg/day, ig for 21 days. Type of data set: functional, organism-based. The note with it: time 21.0 day.
A short description of data set [11]: Reversal of resistance to paclitaxel-induced cytotoxicity against human SW620 cells by measuring reduction in paclitaxel IC50 at 20 uM pre-incubated for 4 hrs followed by paclitaxel addition and measured after 72 hrs by MTT assay. Type of data set: functional, SW-620. The note with it: time 76 hrs.
Data set [12] can be described thus: Reversal of resistance to paclitaxel-induced cytotoxicity in human KB-3-1 cells assessed as reduction in paclitaxel IC50 at 20 uM pre-incubated for 4 hrs followed by paclitaxel addition and measured after 72 hrs by MTT assay. The data set is classed as functional. The settings on record: time 76 hrs.
Data set [13] can be described thus: Reversal of resistance to paclitaxel-induced cytotoxicity in HEK293 cells assessed as reduction in paclitaxel IC50 at 10 uM pre-incubated for 4 hrs followed by paclitaxel addition and measured after 72 hrs by MTT assay. The note with it: time 76 hrs. Type of data set: functional, Homo sapiens.
Data set [14] concerns the target T1, ATP-dependent translocase ABCB1 (Homo sapiens, UniProt P08183). The data set is described as follows: Stabilization of ABCB1 in human SW620/Ad300 cells assessed as inhibition of high temperature-induced ABCB1 protein degradation at 200 uM incubated for 30 mins by cellular thermal shift assay. The data set is classed as cell-based. The note with it: sw-620, 0.5 h.

Data set [15] in a line: Reversal of resistance to paclitaxel-induced cytotoxicity against human SW620 cells by measuring reduction in paclitaxel IC50 at 10 uM pre-incubated for 4 hrs followed by paclitaxel addition and measured after 72 hrs by MTT assay. Type of data set: functional, SW-620. The settings on record: time 76 hrs.
Data set [16] relates to SW-620. The data set is described as follows: Antitumor activity against human SW620/Ad300 cells xenografted in BALB/c mouse assessed as induction of tumor apoptosis by measuring nuclear pyknosis at 20 mg/kg/day, ig for 21 days by TUNEL assay. Type of data set: functional, organism-based. The settings on record: time 21.0 day.
Data set [17] has as its system SW-620. As to the kind of experiment: Inhibition of [3H]PTX efflux in human SW620 cells at 20 uM pre-incubated for 4 hrs followed by PTX addition and measured after 2 hrs by liquid scintillation counting analysis. The data set is classed as functional, cell-based. The note with it: time 6.0 hrs.
In data set [18] the test system is SW-620. As to the kind of experiment: Potentiation of PTX-induced antitumor activity against human SW620/Ad300 cells xenografted in BALB/c mouse assessed as reduction in tumor volume at 20 mg/kg/day, ig for 21 days relative to PTX alone. Type of data set: functional, organism-based. The note with it: time 21.0 day.
The nature of data set [19]: Toxicity in BALB/c mouse xenografted with human SW620/Ad300 cells assessed as effect on body weight changes at 20 mg/kg/day, ig. Type of data set: organism-based. The note with it: in vivo, po.
Data set [20] addresses T1, ATP-dependent translocase ABCB1. As to the kind of experiment: Stimulation of ABCB1 ATPase activity (unknown origin) assessed as increase in inorganic phosphate release at 5 to 45 uM incubated for 20 mins in presence of Mg-ATP by spectrophotometry. The note with it: dose 5-45 µM.
The test system of data set [21] is SW-620. As to the kind of experiment: Potentiation of PTX-induced antitumor activity against human SW620/Ad300 cells xenografted in BALB/c mouse assessed as reduction in tumor weight at 20 mg/kg/day, ig for 21 days relative to PTX alone. The data set is classed as functional, organism-based. The note with it: time 21.0 day.
Data set [22] is described as follows: Reversal of resistance to paclitaxel-induced cytotoxicity in human KB-3-1 cells assessed as reduction in paclitaxel IC50 at 10 uM pre-incubated for 4 hrs followed by paclitaxel addition and measured after 72 hrs by MTT assay. Type of data set: functional. The settings on record: time 76 hrs.
Data set [23] in a line: Toxicity in BALB/c mouse xenografted with human SW620/Ad300 cells assessed as induction of liver injury at 20 mg/kg/day, ig by H and E staining based assay. Type of data set: organism-based. The settings on record: in vivo, po.
Data set [24] deals with SW-620. The data set is described as follows: Effect on intracellular PTX concentration in human SW620 cells at 4 uM pre-incubated for 4 hrs followed by PTX addition and measured after 2 hrs by liquid scintillation counting analysis. Type of data set: functional, cell-based. The settings on record: time 6.0 hrs.
For data set [25], the system named is SW-620. The note with it: Homo sapiens, dose 6.0 mg/kg/day, time 21.0 day.

SMILES strings stand for the structures. Activity calls are given as the source filed them. No cut-off for these calls is given here.

T1 sequence (P08183 whole entry): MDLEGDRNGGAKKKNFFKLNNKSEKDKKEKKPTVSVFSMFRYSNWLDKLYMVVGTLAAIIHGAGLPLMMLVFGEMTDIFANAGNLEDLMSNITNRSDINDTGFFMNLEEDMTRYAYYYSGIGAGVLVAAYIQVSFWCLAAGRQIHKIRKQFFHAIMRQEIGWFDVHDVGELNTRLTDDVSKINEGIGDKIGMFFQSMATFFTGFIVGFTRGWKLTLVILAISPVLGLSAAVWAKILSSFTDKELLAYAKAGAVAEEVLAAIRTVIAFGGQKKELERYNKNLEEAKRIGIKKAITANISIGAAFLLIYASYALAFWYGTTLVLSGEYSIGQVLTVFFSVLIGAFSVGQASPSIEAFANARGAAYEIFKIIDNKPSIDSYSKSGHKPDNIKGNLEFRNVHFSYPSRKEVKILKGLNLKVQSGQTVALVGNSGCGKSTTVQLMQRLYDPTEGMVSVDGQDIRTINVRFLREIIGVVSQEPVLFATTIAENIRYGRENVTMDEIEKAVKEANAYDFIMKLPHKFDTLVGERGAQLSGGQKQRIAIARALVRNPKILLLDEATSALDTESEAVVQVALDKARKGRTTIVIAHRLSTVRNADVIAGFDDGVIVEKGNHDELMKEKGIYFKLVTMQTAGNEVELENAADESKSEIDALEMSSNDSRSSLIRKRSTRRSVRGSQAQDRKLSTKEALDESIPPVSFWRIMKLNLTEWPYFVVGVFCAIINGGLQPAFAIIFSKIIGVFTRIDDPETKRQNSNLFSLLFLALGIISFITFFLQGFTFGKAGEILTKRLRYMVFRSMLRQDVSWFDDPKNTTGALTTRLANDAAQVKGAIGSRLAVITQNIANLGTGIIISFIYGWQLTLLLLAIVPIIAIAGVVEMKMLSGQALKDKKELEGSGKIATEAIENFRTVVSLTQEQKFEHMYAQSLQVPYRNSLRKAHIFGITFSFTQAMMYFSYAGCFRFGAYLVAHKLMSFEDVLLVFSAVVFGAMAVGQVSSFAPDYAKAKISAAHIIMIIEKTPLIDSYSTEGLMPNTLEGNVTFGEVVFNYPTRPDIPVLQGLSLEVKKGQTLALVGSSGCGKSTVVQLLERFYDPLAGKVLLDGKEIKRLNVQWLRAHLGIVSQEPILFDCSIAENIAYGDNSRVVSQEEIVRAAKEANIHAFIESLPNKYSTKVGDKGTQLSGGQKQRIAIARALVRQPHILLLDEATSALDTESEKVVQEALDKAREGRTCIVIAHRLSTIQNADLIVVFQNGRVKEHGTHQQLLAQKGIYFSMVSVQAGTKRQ
Chain of CYP3A4 (P08684 whole entry): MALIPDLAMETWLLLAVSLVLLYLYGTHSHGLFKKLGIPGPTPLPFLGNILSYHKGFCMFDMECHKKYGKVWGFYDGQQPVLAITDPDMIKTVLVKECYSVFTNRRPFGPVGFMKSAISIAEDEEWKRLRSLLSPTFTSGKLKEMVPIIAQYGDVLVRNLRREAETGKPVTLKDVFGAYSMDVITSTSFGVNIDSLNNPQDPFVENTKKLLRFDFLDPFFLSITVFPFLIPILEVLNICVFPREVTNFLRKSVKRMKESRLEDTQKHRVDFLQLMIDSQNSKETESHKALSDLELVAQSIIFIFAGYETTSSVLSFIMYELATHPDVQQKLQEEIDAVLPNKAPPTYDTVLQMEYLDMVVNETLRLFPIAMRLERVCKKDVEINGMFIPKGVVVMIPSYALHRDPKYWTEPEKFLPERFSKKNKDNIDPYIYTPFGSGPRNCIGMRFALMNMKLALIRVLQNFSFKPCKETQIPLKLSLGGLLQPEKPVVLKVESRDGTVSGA
Chain of Cytochrome P450 3A4 (P08684 whole entry): as above

The term IC50 denotes the concentration at which inhibition is half-maximal. As to `COc1ccc(CSc2nc3nc(C)cc(Nc4ccc(F)cc4)n3n2)cc1`, in data set [1], the IC50 amounted to 1.93 µM.
Turning to `Cc1cc(Nc2ccc(F)cc2)n2ncnc2n1`, the viability at 72 h, 20 µM in data set [2] was found to be 93.2%.
On to `Cc1cc(Nc2ccc(O)c(Cl)c2)n2nc(SCc3nc4ccccc4[nH]3)nc2n1`, for which, in data set [1], the IC50 was 3.22 µM.
On the same count and under the same terms, in the case of `Cc1ccc(CSc2nc3nc(C)cc(Nc4ccc(F)cc4)n3n2)cc1` it was 2.04 µM.
As to `CCc1cc(Nc2ccc(F)cc2)n2nc(SCc3ccccc3)nc2n1`, the IC50 in data set [1] was determined as 1.61 µM.
On the same count and under the same terms, to `Cc1cc(Nc2ccccc2)n2nc(SCc3nc4ccccc4[nH]3)nc2n1` belongs 0.046 µM.
`Cc1cc(Nc2ccc(F)cc2)n2nc(SCc3nc4ccccc4[nH]3)nc2n1`: the Activity result on Cytochrome P450 3A4 is given as “Active”; in data set [3] it was “Not Active”; in data set [6] it was “Non-Toxic”; in data set [14], “Active”; in [19] it was “Non-Toxic”; in data set [23], “Non-Toxic”. Moreover, on CYP3A4, the fold induction at 0.5 h, 20 µM stood at 1.06. Further, the “fold change (FC)” value in data set [4] is 1.29; in [11] it was 1.5; in data set [12], 1.52; in data set [13] it was 1.3; in data set [15], 1.05; in [20], 2.5. For the same compound, the “fold change (FC)” value in [22] worked out at 1.5. The outcome with SW-620 [5], in the data set on SW-620 [8] and with SW-620 [9] was inactive. The outcome in the data set with SW-620 [7] and in the data set with SW-620 [16] was Active. Also, in the data set with SW-620 [10], the TGI entry is “inactive”. Also, the inhibition entry in the data set with SW-620 [17] is “Active”. The TGI entry with SW-620 [18] and with SW-620 [21] was “Active” in each case.
For the compound `N#Cc1c(Nc2cccc(Cl)c2)nc(SCC(=O)NC(=O)Nc2ccccn2)nc1-c1ccccc1`, the IC50 in [1] was found to be 5 µM.
Same read-out and setting: in the case of `Cc1ccccc1Nc1nc(SCc2cn(Cc3ccc(Cl)cc3)nn2)nc(-c2ccccc2)c1C#N` it was 36 µM.
As for `Cc1cc(Nc2c(F)cccc2F)n2nc(SCc3nc4ccccc4[nH]3)nc2n1`, in data set [1], the IC50 was determined as 0.79 µM.
Same read-out and setting: to `Cc1cc(Nc2cc(F)c(F)cc2F)n2nc(SCc3nc4ccccc4[nH]3)nc2n1` belongs 0.26 µM.
Consider `COc1ccc(CCN(C)CCCC(C#N)(c2ccc(OC)c(OC)c2)C(C)C)cc1OC` (stereo not given), for which, in the data set with SW-620 [24], the result was inactive. Moreover, in the data set with SW-620 [25], the TGI entry is “Active”.
